According to patent US11632953B2, “Method for controlling hematophagous or sap-feeding arthropods” (Board of Supervisors of Louisiana State University and …, priority 2016, dated 2023):

Experiments:
[1] = system: honey bees (Apis mellifera); test: acute topical toxicity in adult honey bees; format: in vivo; conditions: 48 h, VU041 1 mg/bee (~10 μg/mg), bifenthrin 0.1 μg/bee
Method: Frames of late-stage honeybee (A. mellifera) pupae were taken from four colonies at The Ohio State University Honey Bee Lab in Wooster, Ohio, and maintained in a dark humid incubator at 34° C. (Darwin Chambers Co., St. Louis, Mo., model H024) until adult bees emerged. New adults were brushed from frames daily, placed in wooden screen cages (21×14×12 cm), and provided with 1:1 (w/w) sucrose in water.
Acute toxicity experiments in adult bees were performed as follows: Twenty-four hours after emergence, adult honey bees in cages were anaesthetized with carbon dioxide, divided into groups of approximately 20 bees each, and placed in plastic-coated paper cups (177 cm^3; UNIQ Paper Yogurt Cup, Frozen Dessert Supplies, Gilbert, Ariz.) covered with cotton cheesecloth. […] As a positive control, some bees were treated with 3 μl of bifenthrin (0.1 μg/μl). Negative control bees were treated with 3 μl of solvent. Applications were made using a 20 μl micropipette (Fisherbrand Finnpipette F2, Fisher Scientific, Pittsburgh, Pa.) with a disposable plastic tip. […] Toxicity to honey bees was recorded at 48 h, rather than the 24 h used for mosquitoes, to allow for the possibility of delayed toxicity due to the larger body size of the bee. Bees showing no movement 48 h after treatment were scored as dead.

hKir2.1 = hKir2.1 (Homo sapiens (Human), UniProt P63252); test: thallium (Tl+) flux assay; format: cell-based; conditions: SAR libraries; read-out: hKir2.1 IC50
AnKir1 [2] = target: T1, AnKir1 (Anopheles gambiae, UniProt A0A075M2J8); test: thallium (Tl+) flux assay; format: cell-based; conditions: SAR libraries; read-out: AnKir1 IC50
Method: The thallium flux assay is an in vitro method of measuring conductance through a potassium ion channel. Potassium channels are also permeable to thallium ions. The modulation of a K^+ channel will thus increase or decrease thallium ion flow through the channel and thus, alter the observed fluorescence of a thallium-specific indicator dye.
After 1 hr incubation at room temperature, the dye-loading solution was washed from the plates and replaced with 20 μL/well of assay buffer. The plates were transferred to a Hamamatsu Functional Drug Screening System 6000 (FDSS6000; Hamamatsu, Tokyo, Japan), where 20 μL/well of each of the test compounds in assay buffer was added and allowed to incubate with the cells for 20 min. After incubation, a baseline recording was collected at 1 Hz for 10 s (excitation 470±20 nm, emission 540±30 nm); a thallium stimulus buffer was then added (10 μL/well), and data were then collected for an additional 4 min. […] To ensure the small-molecule vehicle DMSO had no direct effect on AnKir1-dependent Tl^+ flux, the assay's tolerance to different doses of DMSO was evaluated. The robustness and reproducibility of the assay was determined by comparing Tl^+ flux through tetracycline-induced and tetracycline-free cells. The Z′ value was calculated as:
Z′=1−(3SDp+3SDn)/|meanp+meann| where SD is standard deviation, and p and n are control and uninduced flux values, respectively. To compare the effect of DMSO on AnKir1-mediated Tl^+ flux, a one-way ANOVA was performed with a Tukey's multiple comparison test. Prism software (GraphPad Software) was used to generate CRC from Tl^+ flux. Half-inhibition concentration (IC50) values were calculated from fits using a four parameter logistic equation.
Test compounds were transferred to daughter, 384-well polypropylene plates (Greiner Bio-One, Monroe, N.C.) with an Echo555 liquid handler (Labcyte, Sunnyvale, Calif.), and then diluted into assay buffer to generate a 2× stock in 0.6% DMSO (0.3% final). […] Concentration-response curves (CRCs) were generated by screening compounds at 3-fold dilution series (1 nM-30 μM).
Tl^+ flux data were analyzed using Excel (Microsoft Corp, Redmond, Wash.) with XLfit add-in (IDBS, Guildford, Surrey, UK), OriginPro (Origin Lab, Northampton, Mass.), and GraphPad Prism (GraphPad Software, San Diego, Calif., USA) software. Raw data were opened in Excel and each data point in a given trace was divided by the first data point from that trace (static ratio) followed by subtraction of data points from control traces generated with vehicle controls. The slope of the fluorescence increase beginning 5 s after Tl^+ addition and ending 15 s after Tl^+ addition was calculated.
To perform Tl+ flux assays, stably transfected T-Rex-HEK-293 cells expressing AnKir1 channels were cultured overnight in 384-well plates (20,000 cells/20 μL/well), black-walled, clear-bottomed BD Pure Coat amine-coated plates (BD, Bedford, Mass.) with a plating media containing DMEM, 10% dialyzed FBS and 1 μg/mL tetracycline. […] Following 1 hr incubation at room temperature, the dye-loading solution was washed from the plates and replaced with 20 μL/well of assay buffer.

[3] = system: isolated tick salivary gland; test: fluid secretion (salivation) in the isolated tick salivary gland, modified Ramsay assay; parameters: species or system Amblyomma americanum; conditions: for Effect on Salivation at 10 minutes (reduction) / reduction of salivary output / saliva secretion compared to control: isolated tick salivary gland
Drosophila melanogaster = test: whole plant or invertebrate; conditions: 100 μM
Method: A capillary feeding assay (CAFE) was used to quantify the volume of sucrose solution consumed over a period of time; it was performed essentially as described in W. W. Ja, G. B. Carvalho, E. M. Mak, N. N. de la Rosa, A. Y. Fang, J. C. Liong, T. Brummel, S. Benzer, Prandiology of Drosophila and the CAFE assay. Proceedings of the National Academy of Sciences of the United States of America 104, 8253-8256 (2007); published online EpubMay 15 (10.1073/pnas.0702726104). […] One adult fly was placed into a 2 mL glass vial with a screw lid that was pierced with a glass microcapillary tube having a truncated 200-0 pipette tip. The microcapillary tubes contained 5% (wt/vol) sucrose solution with a 5 μl mineral oil overlay to minimize evaporation. […] Concentrations of 100 μM dopamine and 100 μM fluphenazine were used to determine the influence of those agents on fly feeding. […] All dead flies were excluded from all time points of the study regardless of the time of death. Mean (n>25) values are shown in all figure panels, depicting total consumption.
Times spent feeding in Kir1 and GFP genetic knockdown studies were compared to control values for each day using one-way ANOVA with a Dunns multiple comparisons post-test. Statistical significance for all studies was P<0.05.

An. gambiae [4] = conditions: cited from earlier work; for Resistance Ratio (Akron compared to G3 strain): ED50 Akron/ED50 G3
AnKir1 [5] = target: T1, AnKir1; test: whole-cell patch clamp electrophysiology; format: cell-based; conditions: whole-cell patch clamp, HEK-293T cells
Method: Patch electrodes were pulled from silanized 1.5 mm outer diameter borosilicate microhematocrit tubes using a P-1000 Flaming/Brown micropipette puller (Sutter Instrument, Novato Calif., USA). Electrode resistance ranged from 2-4 MΩ. Whole-cell currents were recorded under voltage-clamp conditions using an Axopatch 200B amplifier (Molecular Devices, Sunnyvale, Calif.). Electrical connections to the amplifier used Ag/AgCl wires and 3 M KCl/agar bridges. Electrophysiological data were collected at 5 kHz and filtered at 1 kHz. Data acquisition and analysis were performed using pClamp 9.2 software (Axon Instruments).
Transiently transfected HEK-293T cells expressing AnKir1 were voltage-clamped in the whole-cell configuration of the patch clamp technique. The extracellular bath solution contained (in mM): 135 NaCl, 5 KCl, 2 CaCl2), 1 MgCl2, 5 glucose, 10 HEPES free acid, pH 7.4, 290 mOsm/kg H2O. The pipette solution contained (in mM): 135 KCl, 2 MgCl2, 1 EGTA, 10 HEPES free acid, 2 Na2ATP (Roche, Indianapolis, Ind.), pH 7.3, 275 mOsm. Cells were voltage clamped at −75 mV, stepped to −120 mV for 200 msec, and then ramped to 120 mV at a rate of 2.4 mV/msec. Concentration-response curves (CRCs) were constructed by measuring the effects of increasing doses of inhibitors on AnKir1 currents at −120 mV. All recordings were made at room temperature (20-23° C.).

An. gambiae [6] = test: topical toxicity bioassay in adult female An. gambiae; format: in vivo, Anopheles gambiae; conditions: 24 h
Method: Topical toxicity bioassays were performed on non-blood-fed adult female mosquitoes. The mosquitoes were chilled on ice for 1-3 minutes, during which 200 nL of compound (dissolved in 95% ethanol) was applied onto the abdomen of each insect with a handheld Hamilton® micro-applicator. […] […] The three resulting ED50 values were averaged. An ethanol-only treatment was included in each experiment as a negative control. Treated mosquitoes were transferred to small cages with access to 10% sucrose and held under rearing conditions for 24 h. Mortality was recorded at 24 h.

Aphis gossypii = test: aphid feeding on treated cotton leaves, electrophenegraph technique; format: in vivo; conditions: barium chloride at 300 micromolar
Method: FIGS. 14(A) and (B) depict measurements of aphid (Aphis gossypi) feeding on cotton leaves, as measured through the electrophenegraph technique; on control leaves and on leaves treated with the Kir inhibitor barium, respectively.
In aphids, a specific Kir channel blocker (barium chloride at 300 micromolar) was coated onto leaf tissue, and the feeding behavior of the adult aphid was analyzed through the classical electrophenegraph technique.

[7] = system: isolated tick salivary gland; test: ion secretion in saliva of the isolated tick salivary gland; parameters: species or system Amblyomma americanum
Aedes aegypti mosquitoes = test: mosquito blood feeding with compound exposure; format: in vivo; conditions: compound added to blood
From the text: Tolbutamide and glybenclamide are inhibitors of ATP-gated Kir channels.

T1 sequence (A0A075M2J8 1-555): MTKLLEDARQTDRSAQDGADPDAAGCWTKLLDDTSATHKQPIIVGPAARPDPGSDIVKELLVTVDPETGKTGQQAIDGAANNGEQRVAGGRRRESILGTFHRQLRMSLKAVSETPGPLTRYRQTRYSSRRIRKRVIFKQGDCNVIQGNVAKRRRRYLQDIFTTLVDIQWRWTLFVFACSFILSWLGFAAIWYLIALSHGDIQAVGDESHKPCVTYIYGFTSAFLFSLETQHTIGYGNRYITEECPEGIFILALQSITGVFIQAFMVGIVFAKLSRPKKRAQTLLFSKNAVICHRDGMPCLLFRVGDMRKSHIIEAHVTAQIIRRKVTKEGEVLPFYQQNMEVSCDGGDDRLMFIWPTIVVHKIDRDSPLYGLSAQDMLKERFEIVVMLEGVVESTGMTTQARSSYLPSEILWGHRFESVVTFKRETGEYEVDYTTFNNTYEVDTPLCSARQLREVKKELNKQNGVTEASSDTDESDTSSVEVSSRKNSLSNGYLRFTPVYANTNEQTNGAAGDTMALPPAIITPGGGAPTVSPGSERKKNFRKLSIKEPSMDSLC
Sequence of hKir2.1 (P63252 whole entry): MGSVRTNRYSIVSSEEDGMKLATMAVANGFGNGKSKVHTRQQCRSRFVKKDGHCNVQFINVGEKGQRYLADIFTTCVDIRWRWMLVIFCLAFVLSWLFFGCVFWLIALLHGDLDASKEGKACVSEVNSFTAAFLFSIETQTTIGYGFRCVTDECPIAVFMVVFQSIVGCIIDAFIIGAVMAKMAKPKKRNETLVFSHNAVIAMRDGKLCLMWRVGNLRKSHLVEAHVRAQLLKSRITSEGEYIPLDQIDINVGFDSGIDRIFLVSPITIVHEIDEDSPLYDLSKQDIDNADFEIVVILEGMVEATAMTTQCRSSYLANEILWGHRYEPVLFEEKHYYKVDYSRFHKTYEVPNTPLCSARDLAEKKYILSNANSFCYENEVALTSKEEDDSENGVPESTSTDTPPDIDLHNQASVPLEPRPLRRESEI

Question: For `Cc1c(COC(=O)[C@@H]2[C@H](/C=C(\Cl)C(F)(F)F)C2(C)C)cccc1-c1ccccc1` (racemic) [bifenthrin, reference compound], which “mortality of adult honey bees” value [1] is on record?
Answer: The value was 100%.

Question: Which results are given for `O=C1CCCc2c1ccn2CC(=O)N1CCCc2ccccc21` [Compound 4]?
Answer: IC50 (hKir2.1): > 30 µM; IC50 (AnKir1 [2]): 12.1 µM

Question: With `O=C(CN1CCCc2ccccc21)N1CCCc2ccccc21` [Compound 6] as the molecule, how does the IC50 (AnKir1 [2]) read?
Answer: Its IC50 is 8 µM.

Question: Which results are given for `O=C(Cn1nc(C(F)(F)F)c2c1CCCC2)N1CCCC2CCCCC21` (stereo not shown) [Compound 9]?
Answer: IC50 (hKir2.1): > 30 µM; IC50 (AnKir1 [2]): 6.7 µM

Question: Which results are given for `O=C(Cn1nc(C(F)(F)F)c2c1CCCC2)N1CCCC(c2ccccc2)C1` (stereo not shown) [Compound 12]?
Answer: IC50 (hKir2.1): > 30 µM; IC50 (AnKir1 [2]): 5.6 µM

Question: With `CC1CC(C)CN(C(=O)Cn2nc(C(F)(F)F)c3c2CCCC3)C1` (stereo not shown) [Compound 13] as the molecule, how does the IC50 (hKir2.1) read?
Answer: The IC50 was greater than 30 µM.

Question: What about the IC50 (AnKir1 [2]) of the same molecule?
Answer: Its IC50 is 4.5 µM.

Question: With `O=C(Cn1nc(C(F)(F)F)c2c1CCCC2)N1CCOc2ccccc21` [Compound 14] as the molecule, how does the IC50 (AnKir1 [2]) read?
Answer: Its IC50 is 4.6 µM.

Question: Which “Effect on Salivation at 10 minutes (reduction)” value (“Effect … (reduction)” below) [3] does the source give for `CC(NC(=S)Nc1ccncc1)C(C)(C)C` (stereo not shown) [DRS-1] here?
Answer: Its value is “Reduced ~80%”.

Question: For `CC(NC(=NC#N)Nc1cccnc1)C(C)(C)C` (stereo not shown) [DRS-3], which “Effect … (reduction)” value [3] is on record?
Answer: Its value is “Reduced ~100%”.

Question: Which “Effect … (reduction)” value [3] does the source give for `CC(C)(C)CNC(=C[N+](=O)[O-])Nc1ccncc1` [DRS-4] here?
Answer: Its value is “Reduced ~83%”.

Question: Which “increase in sucrose consumption vs control” value (“increase” below) (Drosophila melanogaster; 1 day PE) does the source give for `NCCc1ccc(O)c(O)c1` [Dopamine, reference compound] here?
Answer: The value was 1.7 fold.

Question: And the “increase” value (Drosophila melanogaster; 2 days PE)?
Answer: The value was 1.3 fold.

Question: What about the “increase” value (Drosophila melanogaster; 3 days PE) of the same molecule?
Answer: Its value is 1.2 fold.

Question: And the “increase” value (Drosophila melanogaster; 4 days PE)?
Answer: The value was 1.4 fold.

Question: Which “Resistance Ratio (Akron compared to G3 strain)” value (An. gambiae [4]) does the source give for `CC1(C)C(C=C(Cl)Cl)C1C(=O)OCc1cccc(Oc2ccccc2)c1` (stereo not shown) [Permethrin] here?
Answer: The value was 33 fold.

Question: And the “ED50, Akron Strain” value (An. gambiae [4]; topical, Akron strain, from reference 21)?
Answer: The value was 0.001 µg/mg.

Question: What about the “ED50, G3 Strain” value (An. gambiae [4]; topical, G3 strain, from reference 21) of the same molecule?
Answer: The value was 3e-07 µg/mg.

Question: Which results are given for `O=C(Cn1ncc2c1CCOC2)N1CCCc2ccccc21` [VU730]?
Answer: IC50 (AnKir1 [5]): 0.717 µM; topical toxicity (An. gambiae [6]; adult females): ED50 similar to that for VU041; ED50 (95% confidence limits), G3 Strain (An. gambiae [6]; topical, G3 strain, synergists 500 ng/insect four hours prior): 2.4 (2.1-2.9) A μg/mg; IC50 (hKir2.1): > 30 µM; IC50 (AnKir1 [2]): 2.4 µM

Question: What does the source list for `[Ba+2].[Cl-].[Cl-]` [barium chloride]?
Answer: feeding phases (egestion, salivation, ingestion) (Aphis gossypii): inability of treated aphids to salivate; K+ and Na+ ion secretion rates in salivary droplets [7]: significantly reduced; transepithelial fluid secretion ([3]; control 270 nl/5 min, preliminary): 141 nl/5 min; reduction of salivary output / saliva secretion compared to control [3]: approximately 60%

Question: With `CNCCC(Oc1ccc(C(F)(F)F)cc1)c1ccccc1` (stereo not shown) [fluoxetine] as the molecule, how does the “reduction of salivary output / saliva secretion compared to control” value [3] read?
Answer: The value was 98%.

Question: Which “cations (K+ and Na+) concentrations excreted from the salivary glands” value [7] does the source give for `O=C(NCCO[N+](=O)[O-])c1cccnc1` [nicorandil] here?
Answer: The value was “significant reduction”.

Question: For `CNC(=O)Oc1ccccc1OC(C)C` [propoxur], which “Resistance Ratio (Akron compared to G3 strain)” value (An. gambiae [4]) is on record?
Answer: Its value is 101 fold.

Question: For `CCCCNC(=O)NS(=O)(=O)c1ccc(C)cc1` [tolbutamide], which “reduction of total volume of blood consumed” value (Aedes aegypti mosquitoes) is on record?
Answer: Its value is 99%.
